Measurements published in patent US20130064815A1, “INDUCING APOPTOSIS IN QUIESCENT CELLS” (THE TRUSTEES OF PRINCETON UNIVERSITY, priority 2011, published 2013).

Columns and labels:
[1] = tested on: P and CI14 fibroblasts; experiment: PPP inhibition and PI live/dead analysis by flow cytometry; assay type: cell-based, human; conditions: CI14 vs proliferating fibroblasts; 100 μM and 250 μM, four days; p<0.01
Protocol: The function of the PPP in quiescent and proliferating fibroblasts was tested. Proliferating or CI14 fibroblasts were incubated with DHEA, a small molecule inhibitor of the PPP for four days. The fraction of cells that were dead was monitored with propidium iodide (PI) labeling followed by flow cytometry.
PPP inhibition and PI live/dead analysis: P and CI14 fibroblasts were treated with dehydroepiandrosterone dissolved in ethanol or dimethylsufoxide (0.1% vol/vol) for four days. On the fourth day of treatment with the inhibitor, cells were trypsinized and collected into conditioned media. Cells were then centrifuged for 5 min at 1000 rpm. The supernatant was aspirated and cells were taken up in PBS with 1 μg/ml PI (VWR, West Chester, Pa.). Cells were kept on ice and immediately analyzed by flow cytometry using a BD LSRII multi-laser analyzer (BD Biosciences, San Jose, Calif.). PI was excited at 488 nm and emitted fluorescence was collected through a 610/20 bandpass filter. At least 40,000 cells were collected and analyzed with FACSDiVa software (BD Biosciences, San Jose, Calif.). PI negative cells were counted as live cells and PI positive cells were counted as dead cells.

[2] = tested on: neoplasms, lymphoblastic lymphoma; conditions: p53-deficient mouse; cited from earlier work
[3] = tested on: skin papillomas and carcinomas; conditions: topical 7,12-dimethylbenz(a)anthracene (DMBA), mice; cited from earlier work
[4] = tested on: oxidized proteins; experiment: oxidized (carbonylated) protein immunoblot after DNP derivatization; assay type: cell-based, human; conditions: DHEA treatment
Excerpt: Glutathione plays an important role in ROS scavenging, both by acting as a cofactor for glutathione peroxidase and via direct interaction with ROS (Jones et al., “Kinetics of superoxide scavenging by glutathione: an evaluation of its role in the removal of mitochrondrial superoxide, Biochem Soc Trans 31, 1337-1339, 2003, which is incorporated herein by reference as if fully set forth). The effects of DHEA treatment on the levels of oxidized proteins were monitored in proliferating and 7 dSS fibroblasts (FIG. 20). Oxidized, carbonylated proteins were derivatized with […] and monitored with an anti-2,4, dinitrophenol antibody. […] Thus, the 7 dSS fibroblasts rely on DHEA-sensitive pathways to maintain low levels of oxidized protein.
In addition to its role in providing amino acids and energy under starvation conditions, autophagy is involved in maintenance of cellular homeostasis and resistance to tumorigenesis through degradation of old or damaged proteins and entire organelles. […] To monitor the extent of protein oxidation in proliferating and contact-inhibited fibroblasts, the protein carbonyl groups were derivatized using 2,4-dinitrophenylhydrazine (DNP), and monitored using immunoblotting with an antibody that recognizes the covalently added DNP. […]

[5] = tested on: colon cancer; conditions: in vivo; cited from earlier work
[6] = target: T1, G6PD (Homo sapiens, UniProt P11413); experiment: G6PD activity in fibroblasts treated with DHEA; assay type: cell-based
T1 construct: endogenous in cells; host or cells: primary human foreskin fibroblasts (proliferating or serum-starved)
T1 sequence (P11413 whole entry): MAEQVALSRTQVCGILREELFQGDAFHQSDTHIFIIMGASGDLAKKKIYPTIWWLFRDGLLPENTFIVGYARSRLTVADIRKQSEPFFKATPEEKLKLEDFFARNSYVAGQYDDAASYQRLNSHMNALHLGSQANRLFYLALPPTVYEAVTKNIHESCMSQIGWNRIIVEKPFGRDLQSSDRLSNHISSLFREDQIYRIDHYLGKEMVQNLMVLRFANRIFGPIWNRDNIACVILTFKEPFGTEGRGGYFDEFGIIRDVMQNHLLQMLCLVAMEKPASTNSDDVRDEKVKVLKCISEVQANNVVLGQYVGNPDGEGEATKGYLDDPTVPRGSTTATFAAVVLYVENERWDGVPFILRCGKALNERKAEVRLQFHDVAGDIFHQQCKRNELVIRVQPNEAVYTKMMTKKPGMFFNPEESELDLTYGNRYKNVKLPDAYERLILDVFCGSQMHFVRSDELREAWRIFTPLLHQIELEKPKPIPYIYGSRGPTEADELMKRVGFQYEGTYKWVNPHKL
Excerpt: Referring to FIGS. 18A and 18B, NADPH production is induced in quiescent fibroblasts. G6PD, PGD and IDH1 are expressed at low levels in proliferating fibroblasts, at higher levels in 7 dCI, 14 dCI and 14 dCI7 dSS fibroblasts, and at even higher levels in 4 dSS and 7 dSS fibroblasts (FIGS. 18A and 18B). Malic enzyme, another protein that generates NADPH but was not predicted to be differentially active in proliferating versus quiescent fibroblasts, was expressed at similar levels in cells in all conditions. The activity of the NADPH-producing enzymes in cytosolic or mitochondrial lysates collected from cells in different proliferative conditions is shown in FIG. 18A. Immunoblotting confirmed successful separation of mitochondrial and cytosolic proteins. Lysates were incubated with the appropriate substrate and the rate of enzymatic activity was determined based on the appearance or disappearance of NADH or NADPH. G6PD had the highest specific activity among the enzymes monitored, consistent with previous reports that it is the most important contributor to NAPDH levels. […] Thus NADPH-generating enzymes in the pentose-phosphate pathway are activated in serum-starved fibroblasts. […]

[7] = tested on: tumor cells; conditions: intraperitoneal injection of tumor cells; cited from earlier work

In the case of C[C@]12CC[C@H](O)CC1=CC[C@@H]1[C@@H]2CC[C@]2(C)C(=O)CC[C@@H]12 [DHEA, dehydroepiandrosterone], the “cell death (PI labeling)” value [1] is given as “statistically significant increase in cell death”, the “death due to neoplasms” value [2] is given as “delay death due to neoplasms” and the “development of skin papillomas and carcinomas” value [3] is given as “reduced”. The oxidized protein levels ([4]; 7 dSS fibroblasts) was “significantly increased”, the oxidized protein levels ([4]; proliferating fibroblasts) was “little effect” and the “effect on colon cancer” value [5] was “chemopreventative effect”. The G6PD activity ([6]; proliferating cells treated with DHEA) was “declined”, the G6PD activity ([6]; serum-starved fibroblasts treated with DHEA) was “significantly declined” and the tumor growth [7] was “inhibit tumor growth”.
